Results on 15 compounds are retold here after patent publication US20260248800A1, “FERROPTOSIS INHIBITORS AND USES THEREOF” (UNIVERSITY OF OTTAWA, priority 2022, published 2026).

Data set [1] has as its system Pfa-1 mouse embryonic fibroblasts (MEFs). As to the kind of experiment: cells. The note with it: Fibroblast.
Data set [2] can be described thus: MeOAMVN-initiated co-autoxidation of STY-BODIPY and egg PC liposomes (FENIX). It is filed as biochemical. Particulars: for n (radical-trapping stoichiometry): MeOAMVN-initiated co-autoxidation of STY-BODIPY and egg PC liposomes.
A short description of data set [3]: H-bond acidity (α2^H) of the RTA by 1H NMR. The class given is physicochemical. Particulars: estimated from the 1H NMR chemical shift difference of the amine proton in DMSO-d6 and benzene-d6.
[4] abbreviates: 5 h, read-out: Pfa-1 MEF Ferroptosis EC50, RSL3-induced cell death (150 nM for 5 hours), AquaBluer.
[5] abbreviates: Table 6, from survival curve of RSL3 induced ferroptosis of pfa-1 MEFS.
Setting [6] is: apparent inhibition rate constant, MeOAMVN-initiated autoxidation of egg PC liposomes, determined by fluorescence.
The mark [7] stands for this setting: apparent inhibition rate constant, MeOAMVN-initiated autoxidation of egg PC liposomes, determined by absorbance (STY-BODIPY 10-20 μM, 565 nm).
The mark [8] stands for this setting: predicted from log kinh^0, α2^H and β2^H=0.69 using Eq. 4 (too reactive to be determined directly).

Like-named read-outs stand apart in the source and are kept apart here.

For the compound `FC(F)(F)c1ccc2c(c1)Oc1ccccc1N2` [Compound 9, 3-trifluoromethylphenoxazine], the EC50 in data set [1] (setting [4]) amounted to 12 nM; in data set [1] (setting [5]) it was 12 ± 1 nM. For the same compound, the “n (radical-trapping stoichiometry)” value in data set [2] is 3.0 ± 0.1. The “kinh^lip” value in data set [2] (setting [6]) is listed as “(42 ± 2) 10^5 M^−1s^−1”.

For the compound `O=[N+]([O-])c1ccc2c(c1)Oc1cc([N+](=O)[O-])ccc1N2` [Compound 19, 3,7-Dinitrophenoxazine], in data set [1] (setting [4]), the EC50 came out at 405 nM. For the same compound, in data set [3], the “α2^H” value is recorded as 0.72. Moreover, the “kinh^lip” value in data set [2] (setting [7]) is recorded as “(1.3 ± 0.1)^e 10^5 M^−1s^−1”.

Take `O=Cc1ccc2c(c1)Sc1ccccc1N2` [Compound 27, 3-formylphenothiazine, reference compound]: the EC50 in data set [1] (setting [4]) was 140 ± 10 nM. Further, the “α2^H” value in data set [3] was 0.47. The “n (radical-trapping stoichiometry)” value in data set [2] worked out at 2.2 ± 0.1. Further, the “kinh^lip” value in data set [2] (setting [6]) is listed as “(14 ± 1) 10^5 M^−1s^−1”.

Regarding `CN1CCN(S(=O)(=O)c2ccc3c(c2)Oc2ccc(C(C)(C)C)cc2N3)CC1` [Compound 61, 2-tert-Butyl-7-(4-methylpiperazin-1-ylsulfonyl)-phenoxazine], the EC50 in data set [1] (setting [4]) stood at 15 ± 1 nM.

For the compound `Cc1cccc2c1Nc1c(C)cccc1S2` [Compound 31, 1,9-dimethylphenothiazine, reference compound], in data set [1] (setting [4]), the EC50 was found to be 35 ± 2 nM. The “α2^H” value in data set [3] is 0.06. For the same compound, the “n (radical-trapping stoichiometry)” value in data set [2] amounted to 1.7 ± 0.1. Moreover, in data set [2] (setting [6]), the “kinh^lip” value is given as “(98 ± 5) 10^5 M^−1s^−1”.

For the compound `c1ccc2c(c1)Nc1ccccc1[Se]2` [Compound 3, phenoselenazine, reference compound], the EC50 in data set [1] (setting [4]) is 23 ± 2 nM. Further, in data set [3], the “α2^H” value was 0.36. Also, in data set [2], the “n (radical-trapping stoichiometry)” value was determined as 2.3 ± 0.1. For the same compound, the “kinh^lip” value in data set [2] (setting [7]) is reported as “(56 ± 3)^e 10^5 M^−1s^−1”.

Consider `Cc1cccc2c1Nc1c(C)cccc1O2` [Compound 36, 1,9-Dimethylphenoxazine], for which the EC50 in data set [1] (setting [4]) was found to be 14 nM. For the same compound, the “α2^H” value in data set [3] is given as 0.12. Besides, the “kinh^lip” value in data set [2] (setting [8]) is on record as 1150 ^f 10^5 M^−1s^−1.

As for `CC(c1ccc2c(c1)Nc1ccccc1O2)S(=O)(=O)NCCN(C)C` (stereo not shown) [Compound 43, N-(2-(dimethylamino)ethyl)-1-(10H-phenoxazin-2-yl)ethanesulfonamide], the EC50 in data set [1] (setting [4]) and in data set [1] (setting [5]) was 15 ± 1 nM in each case.

Turning to `CC(C)(C)c1ccc2c(c1)Nc1cc(C(C)(C)C)ccc1O2` [Compound 33, 2,8-di-tert-butylphenoxazine], the EC50 in data set [1] (setting [4]) and in data set [1] (setting [5]) was 7.2 ± 0.4 nM each time. The “kinh^lip” value in data set [2] (setting [8]) was 730 ^f 10^5 M^−1s^−1.

`CC(c1ccc2c(c1)Nc1ccccc1O2)S(=O)(=O)N1CCN(C)CC1` (stereo not shown) [Compound 47, 2-(1-((4-methylpiperazin-1-yl)sulfonyl)ethyl)-10H-phenoxazine]: the EC50 in data set [1] (setting [4]) and in data set [1] (setting [5]) was 45 ± 6 nM each time.

As to `CC(c1ccc2c(c1)Nc1ccc(C(F)(F)F)cc1O2)S(=O)(=O)N1CCN(C)CC1` (stereo not shown) [Compound 48, 2-(1-((4-methylpiperazin-1-yl)sulfonyl)ethyl)-7-(trifluoromethyl)-10H-phenoxazine], the EC50 in data set [1] (setting [4]) and in data set [1] (setting [5]) was 16 ± 2 nM throughout.

Consider `CC(c1ccc2c(c1)Nc1ccccc1O2)S(=O)(=O)N1CCNCC1` (stereo not shown) [Compound 45, 2-(1-(piperazin-1-ylsulfonyl)ethyl)-10H-phenoxazine], for which the half-maximal effective concentration (EC50) in data set [1] (setting [4]) and in data set [1] (setting [5]) was 13 ± 1 nM throughout.

`CC(C)(C)c1ccc2c(c1)Nc1ccc(S(=O)(=O)N3CCNCC3)cc1O2` [Compound 60, 2-tert-Butyl-7-(piperazin-1-ylsulfonyl)-phenoxazine]: the EC50 in data set [1] (setting [4]) and in data set [1] (setting [5]) was 3 ± 0.2 nM throughout.

With `CC(C)(C)c1ccc2c(c1)Oc1cc(C(C)(C)C)ccc1N2` [Compound 34, 3,7-di-tert-butylphenoxazine], the EC50 in data set [1] (setting [4]) and in data set [1] (setting [5]) was 7.4 ± 0.1 nM each time. For the same compound, the “kinh^lip” value in data set [2] (setting [8]) was 1280 ^f 10^5 M^−1s^−1.

For `CCN(CC)S(=O)(=O)c1ccc2c(c1)Oc1ccccc1N2` [Compound 65, N,N-diethyl-3-sulfonamidephenoxazine], the EC50 in data set [1] (setting [4]) worked out at 31 ± 1 nM.

As a reminder, the EC50 is the concentration giving half of the maximal effect.
